Assay results: patent US9920061B2, “Imidazo[1,5-A]pyrimidinyl carboxamide compounds and their use in the treatment of medical disorders” (Lysosomal Therapeutics Inc., priority 2016, dated 2018)
Converted amounts (≈) assume the structure as drawn. Where two headings read alike, the source gives them in different places.

Tests used:
[1] = target: T1, glucocerebrosidase (Gcase) (Homo sapiens, UniProt P04062); assay: Glucocerebrosidase (Gcase) activation assay, 4-methylumbelliferyl-beta-D-glucopyranoside substrate, with saposin C; type: biochemical
T1 sequence (P04062 40-536): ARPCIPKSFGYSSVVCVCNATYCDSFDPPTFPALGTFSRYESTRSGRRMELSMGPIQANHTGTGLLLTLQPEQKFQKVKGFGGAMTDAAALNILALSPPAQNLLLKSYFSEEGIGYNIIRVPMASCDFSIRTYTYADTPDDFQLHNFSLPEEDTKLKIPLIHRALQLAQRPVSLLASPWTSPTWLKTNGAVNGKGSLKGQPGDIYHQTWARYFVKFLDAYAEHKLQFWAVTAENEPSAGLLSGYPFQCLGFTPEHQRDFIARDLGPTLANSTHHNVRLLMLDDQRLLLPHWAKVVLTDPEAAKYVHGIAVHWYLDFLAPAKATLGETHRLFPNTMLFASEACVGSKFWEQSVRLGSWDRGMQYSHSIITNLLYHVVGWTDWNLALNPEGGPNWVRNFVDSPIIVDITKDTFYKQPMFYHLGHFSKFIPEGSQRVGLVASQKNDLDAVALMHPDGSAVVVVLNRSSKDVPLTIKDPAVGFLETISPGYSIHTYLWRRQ
Experimental: The ability of exemplary compounds to activate glucocerebrosidase (Gcase) was measured.
A 484 μL aliquot of a 1.0 mg/mL solution of phosphatidylserine (PS) (Sigma P7769) in chloroform was evaporated under a stream of nitrogen for 1 hour. The lipid film was dissolved over 4 minutes of vigorous vortexing in 40 mL of 176 mM K2HPO4/50 mM citric acid (pH 4.7) containing 7.5 μL of triton X-100, resulting in a mixed micellar preparation with a composition of 0.32 mM triton and 0.37 mol % PS. 4-Methylumbelliferyl-beta-D-glucopyranoside (ACROS-337025000) was dissolved in the micellar solution to a final concentration of 2 mM for use as the reaction substrate.
Test compounds were diluted to the desired concentrations with dimethylsulfoxide (DMSO) from 10 mM stocks, and 0.41 μL of the DMSO compound mixture was added to 100 μL of micellar solution containing 10 nM GCase and 100 nM saposin C (Enzo ALX-201-262-C050). Pre-incubation was allowed to occur for 30 minutes at room temperature, after which the reaction was initiated by combining 25 μL of substrate solution with 25 μL of compound/GCase/saposin mixture. The reaction proceeded for 15 minutes at room temperature and was stopped by adding 150 μL of 1M glycine, pH 12.5. The endpoint of the reaction was monitored by measuring fluorescence intensity (excitation: 365 nm; emission: 440 nm) on a SpectraMax i3 instrument (Molecular Devices). Test compounds were screened at 1.0 and 0.1 μM final concentration, and subsequent 8-point dose response curves were obtained using 3-fold dilutions from a maximum final concentration of […].

[2] = Compound solubility in water; type: physicochemical
[3] = 0.1 μM test compound, read-out: Percent Gcase Activation 0.1 μM Test Compound
[4] = 1 μM test compound, read-out: Percent Gcase Activation 1 μM Test Compound
[5] = test compound at 0.1 μM, read-out: Percent Gcase Activation, 0.1 μM Test Compound
[6] = test compound at 1.0 μM, read-out: Percent Gcase Activation, 1 μM Test Compound

activation at 0.1 µM [1, 3]	activation at 1 µM [1, 4]	solubility [2]	activation at 0.1 µM [1, 5]	activation at 1 µM [1, 6]	solubility ([2]; in water)	Structure (SMILES)
> 20%	> 60%	4.6 µg/mL (≈ 12.7 µM)	–	–	–	Cc1cc(-c2ccccn2)nc2c(C(=O)NC(CC(C)C)C3CC3)ncn12 (centres unmarked) [III-27]
< 10%	> 60%	19.7 µg/mL (≈ 54.2 µM)	–	–	–	Cc1cc(-c2ccncc2)nc2c(C(=O)NC(CC(C)C)C3CC3)ncn12 (centres unmarked) [III-28]
10 to 20%	> 60%	0.9 µg/mL (≈ 2.4 µM)	–	–	–	Cc1cc(-c2ccccn2)nc2c(C(=O)N[C@@H](C)c3ccccc3F)ncn12 [III-29]
10 to 20%	> 60%	1.3 µg/mL (≈ 3.21 µM)	–	–	–	COc1ccccc1[C@H](C)NC(=O)c1ncn2c(C)cc(-c3ccc(F)cc3)nc12 [III-30]
10 to 20%	> 60%	2.7 µg/mL (≈ 6.93 µM)	–	–	–	CCC(NC(=O)c1ncn2c(C)cc(-c3ccccn3)nc12)c1ccc(F)cc1 (centres unmarked) [III-31]
< 10%	< 30%	–	–	–	–	Cc1cn2cnc(C(=O)N[C@@H](C)C3CC3)c2nc1-c1ccc(F)cc1 [III-32]
> 20%	> 60%	10.5 µg/mL (≈ 29.8 µM)	–	–	–	CCc1cc(-c2ccc(F)cc2)nc2c(C(=O)N[C@@H](C)C3CC3)ncn12 [III-33]
< 10%	< 30%	0.2 µg/mL (≈ 0.564 µM)	–	–	–	COc1cc(-c2ccc(F)cc2)nc2c(C(=O)N[C@@H](C)C3CC3)ncn12 [III-34]
< 10%	< 30%	–	–	–	–	Cc1c(-c2ccc(F)cc2)cnc2c(C(=O)N[C@@H](C)C3CC3)ncn12 [III-38]
< 10%	< 30%	–	–	–	–	Cc1nc2c(C(=O)N[C@@H](C)C3CC3)ncn2cc1-c1ccc(F)cc1 [III-39]
< 10%	< 30%	–	–	–	–	Cc1nc2c(C(=O)N[C@@H](C)C3CC3)ncn2c(C)c1-c1ccc(F)cc1 [III-40]
< 10%	30 to 60%	–	–	–	–	Cc1cc(Oc2ccc(F)cc2)nc2c(C(=O)NC(C)(C)C3CC3)ncn12 [III-77]
< 10%	< 30%	–	–	–	–	Cc1cc(-c2ccc(C#N)c(O)c2)nc2c(C(=O)NC(C3CC3)C(F)(F)F)ncn12 (centres unmarked) [III-159]
< 10%	30 to 60%	–	–	–	–	Cc1cc(-c2cccnc2)nc2c(C(=O)NC(C)C(C)C3CC3)ncn12 (centres unmarked) [III-189]
–	–	–	< 10%	30 to 60%	–	Cc1cc(-c2cccc(OC(F)(F)F)n2)nc2c(C(=O)N[C@H](C)C3CC3)ncn12 [IV-12]
–	–	–	> 20%	> 60%	–	Cc1cc(-c2ccc(C#N)o2)nc2c(C(=O)N[C@H](C3CC3)C(F)(F)F)ncn12 [IV-34]
–	–	–	> 20%	> 60%	–	Cc1cc(-c2ccc(C#N)o2)nc2c(C(=O)N[C@@H](C3CC3)C(F)(F)F)ncn12 [IV-35]
–	–	–	< 10%	< 30%	–	Cc1cc(-c2nccs2)nc2c(C(=O)NC(C)(C)C)ncn12 [IV-54]
–	–	–	–	–	1.4 µg/mL (≈ 3.45 µM)	COc1cccc(-c2cc(C)n3cnc(C(=O)NC(C4CC4)C(F)(F)F)c3n2)n1 (centres unmarked) [IV-91]
–	–	–	> 20%	> 60%	–	Cc1cc(C#N)c(-c2cc(C)n3cnc(C(=O)N[C@H](C4CC4)C(F)(F)F)c3n2)o1 [IV-93]
–	–	–	> 20%	> 60%	–	Cc1cc(C#N)c(-c2cc(C)n3cnc(C(=O)N[C@@H](C4CC4)C(F)(F)F)c3n2)o1 [IV-94]
–	–	–	10 to 20%	> 60%	–	Cc1nscc1-c1cc(C)n2cnc(C(=O)N[C@H](C3CC3)C(F)(F)F)c2n1 [IV-96]
–	–	–	10 to 20%	> 60%	–	Cc1nscc1-c1cc(C)n2cnc(C(=O)N[C@@H](C3CC3)C(F)(F)F)c2n1 [IV-97]
–	–	–	> 20%	> 60%	–	Cc1sncc1-c1cc(C)n2cnc(C(=O)N[C@H](C3CC3)C(F)(F)F)c2n1 [IV-98]
–	–	–	> 20%	> 60%	–	Cc1sncc1-c1cc(C)n2cnc(C(=O)N[C@@H](C3CC3)C(F)(F)F)c2n1 [IV-99]
